“And” between values parts separate entries of the source, which are not always exact repeats. Identical values can stand only once.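 Interpolation was linear, between the two tested concentrations surrounding the appropriate level; five concentrations were tested over 48 hours in 96-well plates. The concentration for 50% growth inhibition is given as GI50. TGI: concentration producing complete growth inhibition.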 A value given as a limit tells only on which side of the number the result lay.

Among the test systems are MALME-3M melanoma; NCI-H23 lung; SK-MEL-5 melanoma; IGROV1 ovarian; A498 renal; OVCAR-3 ovarian; SF-295 CNS; KM12 colon; RPMI-8226 leukemia; COLO 205 colon.
What all share (assay): inhibition of tumour cell growth, NCI panel, 48 h

For `Cc1cc2c(=O)cc(-c3ccc(C(=O)O)cc3)oc2c(C(N)=O)c1C`, the TGI with MALME-3M melanoma, with NCI-H23 lung, in the assay on SK-MEL-5 melanoma, in the assay with IGROV1 ovarian, in the assay on A498 renal and in the assay on OVCAR-3 ovarian was more than 100 µM in each case. For the same molecule, the TGI in the assay with SF-295 CNS, in the assay with KM12 colon, with RPMI-8226 leukemia and with COLO 205 colon was more than 100 µM each time.
As for `CCOC(=O)Cc1csc(Nc2nc(O)c(C3=c4ccccc4=NC3=O)s2)n1`, the GI50 in the assay with MALME-3M melanoma was 25.5 µM; in the assay with NCI-H23 lung, 56 µM; in the assay on SK-MEL-5 melanoma it was 28.5 µM; in the assay with IGROV1 ovarian, 27.2 µM; in the assay with A498 renal, 31.6 µM; in the assay with OVCAR-3 ovarian, 26.9 µM. For the same molecule, the GI50 in the assay with SF-295 CNS was 32.1 µM; in the assay on KM12 colon, 20.4 µM; with RPMI-8226 leukemia, 20.9 µM; in the assay with COLO 205 colon it was 47.1 µM. The TGI with MALME-3M melanoma is 78.4 µM; in the assay on NCI-H23 lung, more than 100 µM; with SK-MEL-5 melanoma, more than 100 µM; in the assay on IGROV1 ovarian it was 69 µM; in the assay with A498 renal it was 77.7 µM; in the assay on OVCAR-3 ovarian it was 61.5 µM. Moreover, the TGI with SF-295 CNS was 75.3 µM; in the assay on KM12 colon it was 68.9 µM; in the assay with RPMI-8226 leukemia it was 53.2 µM; in the assay with COLO 205 colon it was more than 100 µM.
For the molecule `CCN1C2=C(SC(=S)C1=C1SC(C(=O)c3ccccc3)=C(C(=O)c3ccccc3)S1)SC(=Nc1ccccc1)C2=O`, the GI50 in the assay with MALME-3M melanoma was 21.2 µM; in the assay with NCI-H23 lung, 5.43 µM; in the assay with SK-MEL-5 melanoma it was more than 70.8 µM; in the assay on IGROV1 ovarian, 23 µM; with A498 renal, 28.1 µM; in the assay with OVCAR-3 ovarian it was 30.9 µM. Further, the GI50 was 11.3 µM in the assay with SF-295 CNS, 51 µM in the assay on KM12 colon, 2.13 µM with RPMI-8226 leukemia and more than 100 µM in the assay on COLO 205 colon. Further, the TGI in the assay with MALME-3M melanoma, in the assay with NCI-H23 lung, in the assay on SK-MEL-5 melanoma, with IGROV1 ovarian, with A498 renal and in the assay with OVCAR-3 ovarian was more than 100 µM each time. Besides, the TGI with SF-295 CNS was more than 90.7 µM; in the assay with KM12 colon, more than 100 µM; with RPMI-8226 leukemia, more than 100 µM; with COLO 205 colon, more than 100 µM.
Take `COC(=O)c1oc([N+](=O)[O-])c(-c2ccccc2)c1-c1ccccc1`: the TGI in the assay with MALME-3M melanoma, in the assay on NCI-H23 lung, in the assay with SK-MEL-5 melanoma, in the assay with IGROV1 ovarian, in the assay on A498 renal and with OVCAR-3 ovarian was more than 100 µM each time. In addition, the TGI in the assay on SF-295 CNS, with KM12 colon, in the assay with RPMI-8226 leukemia and in the assay on COLO 205 colon was more than 100 µM throughout.
In the case of `CC12OC(C(=O)C13CC3)C1C(=O)c3cccc(O)c3C(=O)C12` (stereo not given), the GI50 was 5.31 µM with MALME-3M melanoma; 7.55 µM in the assay with NCI-H23 lung; 6.79 µM with SK-MEL-5 melanoma; 12.2 µM in the assay with IGROV1 ovarian; 16.3 µM in the assay with A498 renal; 2.49 µM with OVCAR-3 ovarian. For the same molecule, the GI50 in the assay on SF-295 CNS was 2.68 µM; in the assay on KM12 colon, 13.8 µM; in the assay with RPMI-8226 leukemia, 2.22 µM; in the assay on COLO 205 colon it was 15.5 µM. Also, the TGI is 14 µM in the assay with MALME-3M melanoma; 22.7 µM in the assay with NCI-H23 lung; more than 100 µM in the assay on SK-MEL-5 melanoma; more than 100 µM in the assay with IGROV1 ovarian; 30.4 µM in the assay with A498 renal; 19.9 µM with OVCAR-3 ovarian. Moreover, the TGI with SF-295 CNS was 22.6 µM; in the assay with KM12 colon it was 38.1 µM; in the assay with RPMI-8226 leukemia, more than 100 µM; with COLO 205 colon, more than 96.2 µM.
As for `CC(C)c1ccc2c(c1)CCC1C(C)(CN)CCCC21C` (stereo not given), the TGI in the assay on MALME-3M melanoma is 2.8 µM; with NCI-H23 lung it was 3.36 µM; in the assay on SK-MEL-5 melanoma it was 3.17 µM; with IGROV1 ovarian it was 2.93 µM; in the assay on A498 renal, 2.78 µM; with OVCAR-3 ovarian, 3.26 µM. The TGI in the assay on SF-295 CNS came to 3.34 µM; with KM12 colon, 3.34 µM; in the assay with RPMI-8226 leukemia, 4.3 µM; in the assay with COLO 205 colon it was 1.43 µM.
For `Fc1ccc(-c2nn3c(COc4ccccc4Cl)nnc3s2)cc1Oc1ccccc1`, the GI50 in the assay on MALME-3M melanoma was 26.2 µM; in the assay with NCI-H23 lung it was 21.2 µM; with SK-MEL-5 melanoma, 53.3 µM; with IGROV1 ovarian, 31 µM; in the assay with A498 renal, 67.6 µM; in the assay on OVCAR-3 ovarian, 22.5 µM. Also, the GI50 with SF-295 CNS is 18.9 µM; with KM12 colon, 43.1 µM; in the assay on RPMI-8226 leukemia, 51.1 µM; with COLO 205 colon, 46.4 µM. Besides, the TGI in the assay on MALME-3M melanoma was 68.9 µM; in the assay on NCI-H23 lung, 43.9 µM; with SK-MEL-5 melanoma, more than 100 µM; in the assay with IGROV1 ovarian, more than 100 µM; in the assay on A498 renal, more than 100 µM; in the assay with OVCAR-3 ovarian, 52.5 µM. The TGI is 50.9 µM with SF-295 CNS, more than 100 µM in the assay with KM12 colon, more than 100 µM in the assay with RPMI-8226 leukemia and more than 100 µM with COLO 205 colon.
Take `COc1cccc(Nc2ncnn3ccc(CN4CC[C@@H](N)[C@H](O)C4)c23)c1`: the GI50 in the assay with MALME-3M melanoma was 17.6 µM and > 4.83 µM; in the assay on NCI-H23 lung it was 2.53 µM and 3.05 µM; with SK-MEL-5 melanoma it was 14.5 µM and > 5.6 µM; in the assay on IGROV1 ovarian, 0.407 µM and 0.0561 µM; in the assay with A498 renal, 1.12 µM and 0.861 µM; in the assay on OVCAR-3 ovarian, 3.92 µM and 1.63 µM. In addition, the GI50 is 12.2 µM and > 5.6 µM in the assay with SF-295 CNS; 3.31 µM and 2.88 µM with KM12 colon; 20.9 µM and > 5.39 µM in the assay on RPMI-8226 leukemia; 3.73 µM and 3.13 µM in the assay on COLO 205 colon. The TGI in the assay on MALME-3M melanoma is 35.2 µM and > 10 µM; with NCI-H23 lung, 18.4 µM and > 10 µM; in the assay with SK-MEL-5 melanoma, 27.8 µM and > 10 µM; with IGROV1 ovarian it was 6.79 µM and 2.73 µM; with A498 renal, 4.72 µM and 3.75 µM; with OVCAR-3 ovarian, more than 60.8 µM. The TGI in the assay on SF-295 CNS was 45.5 µM and > 10 µM; in the assay on KM12 colon it was 15.3 µM and > 10 µM; in the assay with RPMI-8226 leukemia, 68 µM and > 10 µM; in the assay with COLO 205 colon, 18.2 µM and > 6.18 µM.

The record behind these values is PubChem BioAssay (NCI).
